Experiments:
GPR55A [1] = target: T1, GPR55A (Homo sapiens, UniProt Q9Y2T6); test: GTPγS binding assay on membranes of GPR55A-transfected HEK293s cells; type: biochemical; details: for EC50: NA = not active; for activation of GPR55A (GTPγS): concentration response
T1 construct: expressed in transfected cells; host or cells: HEK293s (transient, pIRESneo2 vector), membranes
Protocol: Membranes with or without 20 μM ligand were assayed for their stimulatory or inhibitory activity on GTPγS binding. As a negative control, cell membranes were prepared from empty vector-transfected cells, and as a positive control, cell membranes were prepared from CB1 transfected cells.
Receptor activity was determined using a GTPγS binding assay as follows: 10 μg of membranes diluted in 200 μl of 100 mM NaCl, 5 mM MgCl2, 1 mM EDTA, 50 mM HEPES (pH 7.4), 1 mM DTT, 0.1% BSA and 100 μM GDP. To this was added the required concentration of test compound and […] ^35S-GTPγS in the presence or absence of an EC80 concentration of agonist (HU210). […] Samples were then transferred on to GF/B filters using a cell harvester and washed with wash buffer (50 mM Tris (pH 7.4), 5 mM MgCl2, 50 mM NaCl). Filters were then covered with scintilant and counted for the amount of ^35S-GTPγS retained by the filter. To determine the level of non-specific binding control reactions were performed in the presence of 10 μM GTPγS.
Functional activity of ligands either in the presence or absence of agonists was determined as follows: Non-specific binding was subtracted from all values determined. The effect of compounds at various concentrations was plotted according to the equation y=A+((B−A)/1+((C/x)?ˆD))) and EC50 or IC50 estimated. Results
To further define the agonist activities of cannabinoid ligands EC50 determinations were made. […] Refer to FIGS. 5A-5D for the results. […] Table 1. Activity of ligands at GPR55A (Antagonist data were generated in the presence of an EC80 concentration of HU210.)

[2] = Radioligand binding, membranes of vector-transfected cells (negative control); details: vector-transfected cell membranes
Protocol: (§1) Test compounds were added followed by 1.6 nM radioligand (3H—SR-141716A, ^3H-CP55940 or ^3H-WIN-55, 212-2) to an assay mixture containing membranes (10 μg protein) in 5.0 mM Tris, 5.0 mM MgCl2×6H2O (pH 7.4) supplemented with 0.05% BSA. The reaction was allowed to proceed at 30° C. for 90 min and then terminated by rapid filtration using GF/B filters (pre-soaked in 0.05% PEI) and washed with 50 mM Tris (pH 7.4), MgCl2×6H2O. Filters were then covered with scintillant and counted for the amount of radioligand retained. Non-specific binding was determined in the presence of 200 nM SR-141716A, CP55940 or WIN-55, 212-2.

GPR55 = target: T2, GPR55 (Homo sapiens, UniProt Q9Y2T6); test: Radioligand binding, membranes of GPR55-transfected HEK293S cells; details: for specific binding of radioligand: 1.6 nM radioligand
T2 construct: FLAG; expressed in transfected cells; host or cells: HEK293S (transient), membranes
Protocol: (§2) To test whether GPR55 and/or GPR55Δ encoded a receptor that had the potential to perform as a cannabinoid receptor we transiently transfected cDNAs encoding FLAG-tagged forms of the receptors into HEK293S cells using lipofectamine. The cells were harvested 48 hours later and membranes prepared.
(§3) Membrane preparations were prepared by re-suspending receptor expressing cells in ice cold TE buffer (10 mM Tris-HCL 0.1 mM EDTA pH7.5) and leaving on ice for 5 minutes before pelleting the insoluble material by centrifugation at 1000 g. This process was repeated twice before re-suspending the pellet in an appropriate volume of TE and storing at −80° C.
as §1

GPR55A [3] = target: T1, GPR55A; test: Radioligand binding, membranes of GPR55A-transfected HEK293S cells; details: for specific binding of radioligand: 1.6 nM radioligand
Protocol: as §2, §3, §1

[4] = GTPγS binding, GPR55A membranes

T2 sequence (Q9Y2T6 whole entry L132S/R133G/S134P/R136G/K137R/I138S/F139L/I141S/C142A): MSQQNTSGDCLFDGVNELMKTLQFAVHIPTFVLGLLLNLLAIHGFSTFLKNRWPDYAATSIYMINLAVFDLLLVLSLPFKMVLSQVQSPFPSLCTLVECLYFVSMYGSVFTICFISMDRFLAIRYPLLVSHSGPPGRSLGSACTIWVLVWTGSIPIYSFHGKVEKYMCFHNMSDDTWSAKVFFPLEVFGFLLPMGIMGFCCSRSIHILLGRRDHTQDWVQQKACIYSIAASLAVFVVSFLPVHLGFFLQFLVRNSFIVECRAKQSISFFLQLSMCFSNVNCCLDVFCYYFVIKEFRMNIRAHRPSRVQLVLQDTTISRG
T1 sequence (Q9Y2T6 whole entry): as the sequence (Q9Y2T6 whole entry L132S/R133G/S134P/R136G/K137R/I138S/F139L/I141S/C142A) above, with S132L, G133R, P134S, G136R, R137K, S138I, L139F, S141I, A142C counted along it

| SMILES | EC50 (GPR55A [1]; [4]) [nM] | activation of GPR55A (GTPγS) (GPR55A [1]) | also measured |
| --- | --- | --- | --- |
| CCCCCCCC/C=C\CCCCCCCC(=O)NCCO [Oleylethanolamide] | 424 ± 203 | – | – |
| Cc1c(C(=O)NN2CCCCC2)nn(-c2ccc(Cl)cc2Cl)c1-c1ccc(Cl)cc1 [SR141716] | – | – | specific binding, [^3H]-SR141716 competition [2]: no specific binding; displacement of [^3H]-SR141716 (competition-binding curve) (GPR55): nanomolar affinity; displacement of [^3H]-SR141716 (competition-binding curve) (GPR55A [3]): nanomolar affinity |
| CCCCC/C=C\C/C=C\C/C=C\C/C=C\CCCC(=O)NCCO [Anandamide] | 18.4 ± 4.1 | concentration-dependent activation | – |
| CCCCCCC(C)(C)c1ccc([C@@H]2C[C@H](O)CC[C@H]2CCCO)c(O)c1 [[^3H]-CP55940] | – | – | specific binding of radioligand (GPR55): significant binding; specific binding of radioligand (GPR55A [3]): significant binding |
| CCCCCCC(C)(C)c1ccc([C@@H]2C[C@H](O)CC[C@H]2CCCO)c(O)c1 [CP55940] | 7.1 ± 1.3 | – | concentration dependent activity after pertussis toxin or cholera toxin treatment (GPR55A [1]; GPR55a in HEK293s membranes, treated with either toxin vs untreated): remains unaltered |
| Cc1c(C(=O)c2cccc3ccccc23)c2cccc3c2n1C(CN1CCOCC1)CO3 (stereo not drawn) [[^3H]-WIN55-212] | – | – | specific binding of radioligand (GPR55): little or no binding; specific binding of radioligand (GPR55A [3]): little or no binding |
| CCCCCCCCCCCCCCCC(=O)NCCO [Palmitoylethanolamide] | 3.2 ± 1.3 | concentration-dependent activation | – |
| CCCCCc1cc(O)c2c(c1)OC(C)(C)[C@@H]1CCC(C)=C[C@@H]21 [Δ9-THC, Δ9-tetrahydrocannbinol] | 8.9 ± 1.1 | concentration-dependent activation | – |
| CCCCC/C=C\C/C=C\C/C=C\C/C=C\CCCC(=O)OCCN [Virodhamine] | 10.4 ± 1.4 | – | – |
| C=C(C)[C@@H]1CCC(C)=C[C@H]1c1c(O)cc(O)cc1CCCCC [Abnormal cannabidiol] | 2780 ± 98 | – | – |
| CCCn1c(C)c(C(=O)c2cccc3ccccc23)c2ccccc21 [JWH-015] | 4.75 ± 0.25 | – | – |
| Cc1c(C(=O)NN2CCCCC2)nn(-c2ccc(Cl)cc2Cl)c1-c1ccc(Cl)cc1 [[^3H]-SR141716] | – | – | specific binding of radioligand (GPR55): significant binding; specific binding of radioligand (GPR55A [3]): significant binding |
| C=C(C)[C@@H]1CCC(C)=C[C@H]1c1c(O)cc(CCCCC)cc1O [Cannabidiol] | – | – | IC50 (GPR55A [1]; GTPγS binding, GPR55A membranes, antagonist data in the presence of an EC80 concentration of HU210, read-out: IC50 measurement): 354 ± 63 nM |
| CCCCCCC(C)(C)c1cc(O)c2c(c1)OC(C)(C)[C@@H]1CC=C(CO)C[C@@H]21 [Hu210] | 33 ± 12 | – | – |
| CCCCC/C=C\C/C=C\C/C=C\C/C=C\CCCCOC(CO)CO [Noladin Ether] | 11.5 ± 0.5 | concentration-dependent activation | – |
| CCCCC/C=C\C/C=C\C/C=C\C/C=C\CCCC(=O)OC(CO)CO [2-AG, 2-aracodonylglycerol] | 3.5 ± 2.4 | concentration-dependent activation | – |
